Here are results for seven molecules from patent publication US20210395239A1 (Hoffmann-La Roche Inc., priority 2018, published 2021).

Where two headings read alike, the source gives them in different places. Where only a bound is given, the exact number is not on record here.

One series addresses T1, hERG channel (Homo sapiens, UniProt Q12809).
T1 construct: expressed in transfected cells; host or cells: CHO (Chinese hamster ovary)
The series can be described thus: hERG channel inhibition assay (patch-clamp, CHOhERG cells). In kind it is cell-based. The conditions noted are these: for safety window (hERG IC20/TLR7/8/9 IC50) compared to the compounds of this invention: result in words; for hERG IC20/TLR7 IC50 / hERG IC20/TLR8 IC50 / hERG IC20/TLR9 IC50: safety ratio. The method, then:
hERG Channel Inhibition Assay:
The hERG K^+ channels were cloned in humans and stably expressed in a CHO (Chinese hamster ovary) cell line. CHOhERG cells were used for patch-clamp (voltage-clamp, whole-cell) experiments. Cells were stimulated by a voltage pattern to activate hERG channels and conduct IKhERG currents (rapid delayed outward rectifier potassium current of the hERG channel). After the cells were stabilized for a few minutes, the amplitude and kinetics of IKhERG were recorded at a stimulation frequency of 0.1 Hz, (6 bpm). Thereafter, the test compound was added to the preparation at increasing concentrations. For each concentration, an attempt was made to reach a steady-state effect, usually, this was achieved within 3-10 min at which time the next highest concentration was applied. The amplitude and kinetics of IKhERG are recorded in each concentration of the drug which were compared to the control values (taken as 100%). (references: Redfern W S, Carlsson L, Davis A S, Lynch W G, MacKenzie I, Palethorpe S, Siegl P K, Strang I, Sullivan A T, Wallis R, Camm A J, Hammond T G. 2003; Relationships between preclinical cardiac electrophysiology, clinical QT interval prolongation and torsade de pointes for a broad range of drugs: evidence for a provisional safety margin in drug development. Cardiovasc. Res. 58:32-45, Sanguinetti M C, Tristani-Firouzi M. 2006; hERG potassium channels and cardiac arrhythmia. Nature 440:463-469, Webster R, Leishman D, Walker D. 2002; Towards a drug concentration effect relationship for QT prolongation and torsades de pointes. Curr. Opin. Drug Discov. Devel. 5:116-26).
Background: The hERG channel carries a current that helps repolarise heart muscle cells.

Series [1] concerns the target T2, hTLR9 (Homo sapiens, UniProt Q9NR96).
T2 sequence (Q9NR96 26-1032): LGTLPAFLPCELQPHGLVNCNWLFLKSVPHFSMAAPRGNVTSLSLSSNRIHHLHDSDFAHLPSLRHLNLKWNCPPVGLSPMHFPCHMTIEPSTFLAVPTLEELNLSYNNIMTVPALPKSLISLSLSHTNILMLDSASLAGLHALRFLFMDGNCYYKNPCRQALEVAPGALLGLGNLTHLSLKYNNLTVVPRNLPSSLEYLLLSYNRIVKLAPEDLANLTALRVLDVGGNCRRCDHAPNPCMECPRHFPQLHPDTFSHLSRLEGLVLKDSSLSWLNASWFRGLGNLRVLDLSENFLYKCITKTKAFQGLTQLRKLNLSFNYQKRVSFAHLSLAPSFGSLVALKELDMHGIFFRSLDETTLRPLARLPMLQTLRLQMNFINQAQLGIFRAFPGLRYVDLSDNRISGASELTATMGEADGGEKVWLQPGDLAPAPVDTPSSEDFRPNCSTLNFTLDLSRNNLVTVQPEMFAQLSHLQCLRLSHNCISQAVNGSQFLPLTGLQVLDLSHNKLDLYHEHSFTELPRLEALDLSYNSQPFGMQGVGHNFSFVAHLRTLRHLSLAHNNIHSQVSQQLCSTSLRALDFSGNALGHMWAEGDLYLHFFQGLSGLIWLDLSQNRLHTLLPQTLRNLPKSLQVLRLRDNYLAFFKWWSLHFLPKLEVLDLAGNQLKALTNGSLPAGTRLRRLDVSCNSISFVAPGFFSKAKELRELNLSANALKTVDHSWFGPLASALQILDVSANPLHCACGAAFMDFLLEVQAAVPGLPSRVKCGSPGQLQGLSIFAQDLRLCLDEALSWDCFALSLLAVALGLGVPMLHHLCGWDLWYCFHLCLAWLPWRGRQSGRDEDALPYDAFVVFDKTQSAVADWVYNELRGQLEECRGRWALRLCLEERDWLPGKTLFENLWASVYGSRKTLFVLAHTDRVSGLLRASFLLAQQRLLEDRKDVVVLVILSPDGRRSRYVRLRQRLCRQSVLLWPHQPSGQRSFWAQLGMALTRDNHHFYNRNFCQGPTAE
Details: host or cells: HEK. The conditions noted are these: data disclosed in US20150105370; read-out: HEK/hTLR9 IC50; cited from earlier work.

The next series addresses T3, human TLR7 (Homo sapiens, UniProt Q9NYK1).
T3 construct: host or cells: HEK293 (HEK-Blue hTLR7)
T3 sequence (Q9NYK1 27-1049): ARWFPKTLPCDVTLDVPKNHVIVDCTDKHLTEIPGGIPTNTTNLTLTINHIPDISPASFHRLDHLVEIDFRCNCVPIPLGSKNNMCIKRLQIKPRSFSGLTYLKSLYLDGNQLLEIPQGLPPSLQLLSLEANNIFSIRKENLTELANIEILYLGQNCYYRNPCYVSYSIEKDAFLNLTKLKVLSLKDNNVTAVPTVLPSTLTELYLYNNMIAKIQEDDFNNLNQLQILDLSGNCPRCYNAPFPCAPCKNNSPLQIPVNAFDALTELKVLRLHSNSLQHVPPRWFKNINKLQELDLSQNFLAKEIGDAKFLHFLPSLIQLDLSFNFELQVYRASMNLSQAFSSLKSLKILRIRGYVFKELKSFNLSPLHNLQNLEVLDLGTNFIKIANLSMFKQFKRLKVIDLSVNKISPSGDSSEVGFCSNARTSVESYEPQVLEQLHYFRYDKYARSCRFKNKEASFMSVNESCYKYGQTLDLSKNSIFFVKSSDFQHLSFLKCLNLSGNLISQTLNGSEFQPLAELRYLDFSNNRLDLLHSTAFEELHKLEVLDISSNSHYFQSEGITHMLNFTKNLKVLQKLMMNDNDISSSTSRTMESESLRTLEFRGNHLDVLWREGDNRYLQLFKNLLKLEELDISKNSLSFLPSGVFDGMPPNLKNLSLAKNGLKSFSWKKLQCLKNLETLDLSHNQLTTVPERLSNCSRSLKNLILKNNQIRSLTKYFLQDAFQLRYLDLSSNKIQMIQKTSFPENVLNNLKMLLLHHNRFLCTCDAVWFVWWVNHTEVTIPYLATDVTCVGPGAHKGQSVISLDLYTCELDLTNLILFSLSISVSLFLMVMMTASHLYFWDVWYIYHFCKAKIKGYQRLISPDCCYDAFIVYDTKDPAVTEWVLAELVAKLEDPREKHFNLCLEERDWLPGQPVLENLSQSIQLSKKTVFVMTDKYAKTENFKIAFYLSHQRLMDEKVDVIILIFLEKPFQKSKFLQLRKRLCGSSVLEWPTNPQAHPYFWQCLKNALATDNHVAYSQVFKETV
The experiment in a line: HEK293-Blue-hTLR-7 cells assay (SEAP reporter, R848 stimulation). In kind it is cell-based. The following applies: HEK293-Blue-hTLR7 cells, R848, 20 hrs; read-out: HEK/hTLR7 IC50. An excerpt:
HEK293-Blue-hTLR-7 Cells Assay:
(§1) A stable HEK293-Blue-hTLR-7 cell line was purchased from InvivoGen (Cat. #: hkb-ht1r7, San Diego, Calif., USA). These cells were originally designed for studying the stimulation of human TLR7 by monitoring the activation of NF-κB. A SEAP (secreted embryonic alkaline phosphatase) reporter gene was placed under the control of the IFN-β minimal promoter fused to five NF-κB and AP-1-binding sites. The SEAP was induced by activating NF-κB and AP-1 via stimulating HEK-Blue hTLR7 cells with TLR7 ligands. Therefore the reporter expression was declined by TLR7 antagonist under the stimulation of a ligand, such as R848 (Resiquimod), for incubation of 20 hrs. The cell culture supernatant SEAP reporter activity was determined using QUANTI-Blue™ kit (Cat. #: rep-qb1, Invivogen, San Diego, Ca, USA) at a wavelength of 640 nm, a detection medium that turns purple or blue in the presence of alkaline phosphatase.
HEK293-Blue-hTLR7 cells were incubated at a density of […] cells/mL in a volume of 170 μL in a 96-well plate in Dulbecco's Modified Eagle's medium (DMEM) containing 4.5 g/L glucose, 50 U/mL penicillin, […], […], 2 mM L-glutamine, 10% (v/v) heat-inactivated fetal bovine serum with addition of 20 μL test compound in a serial dilution in the presence of final DMSO at 1% and 10 μL of 20 uM R848 in above DMEM, perform incubation under 37° C. in a CO2 incubator for 20 hrs. Then 20 μL of the supernatant from each well was incubated with 180 μL Quanti-blue substrate solution at 37° C. for 2 hrs and the absorbance was read at 620˜655 nm using a spectrophotometer. The signaling pathway that TLR7 activation leads to downstream NF-κB activation has been widely accepted, and therefore similar reporter assay was modified for evaluating TLR7 antagonist.

Series [2] concerns the target T2, hTLR9. The experiment in a line: HEK293-Blue-hTLR-9 cells assay (SEAP reporter, ODN2006 stimulation). In kind it is cell-based. The conditions noted are these: HEK293-Blue-hTLR9 cells, ODN2006, 20 hrs; read-out: HEK/hTLR9 IC50. Details: host or cells: HEK293 (HEK-Blue hTLR9).
Excerpt: HEK293-Blue-hTLR-9 Cells Assay:
as §1, with “HEK293-Blue-hTLR-9” for “HEK293-Blue-hTLR-7”, “hkb-htlr9,” for “hkb-ht1r7,”, “TLR9” for “TLR7”, “hTLR9” for “hTLR7”, “ODN2006 (Cat. #: tlrl-2006-1, Invivogen, San Diego, Calif., USA),” for “R848 (Resiquimod),”, “Calif.,” for “Ca,”
HEK293-Blue-hTLR9 cells were incubated at a density of 250,000˜450,000 cells/mL in a volume of 170 μL in a 96-well plate in Dulbecco's Modified Eagle's medium (DMEM) containing 4.5 g/L glucose, 50 U/mL penicillin, […], 2 mM L-glutamine, 10% (v/v) heat-inactivated fetal bovine serum with addition of 20 μL test compound in a serial dilution in the presence of final DMSO at 1% and 10 μL of 20 uM ODN2006 in above DMEM, perform incubation under 37° C. in a CO2 incubator for 20 hrs. Then 20 μL of the supernatant from each well was incubated with 180 μL Quanti-blue substrate solution at 37° C. for 2 h and the absorbance was read at 620-655 nm using a spectrophotometer. The signaling pathway that TLR9 activation leads to downstream NF-κB activation has been widely accepted, and therefore similar reporter assay was modified for evaluating TLR9 antagonist.

T1 sequence (Q12809 whole entry): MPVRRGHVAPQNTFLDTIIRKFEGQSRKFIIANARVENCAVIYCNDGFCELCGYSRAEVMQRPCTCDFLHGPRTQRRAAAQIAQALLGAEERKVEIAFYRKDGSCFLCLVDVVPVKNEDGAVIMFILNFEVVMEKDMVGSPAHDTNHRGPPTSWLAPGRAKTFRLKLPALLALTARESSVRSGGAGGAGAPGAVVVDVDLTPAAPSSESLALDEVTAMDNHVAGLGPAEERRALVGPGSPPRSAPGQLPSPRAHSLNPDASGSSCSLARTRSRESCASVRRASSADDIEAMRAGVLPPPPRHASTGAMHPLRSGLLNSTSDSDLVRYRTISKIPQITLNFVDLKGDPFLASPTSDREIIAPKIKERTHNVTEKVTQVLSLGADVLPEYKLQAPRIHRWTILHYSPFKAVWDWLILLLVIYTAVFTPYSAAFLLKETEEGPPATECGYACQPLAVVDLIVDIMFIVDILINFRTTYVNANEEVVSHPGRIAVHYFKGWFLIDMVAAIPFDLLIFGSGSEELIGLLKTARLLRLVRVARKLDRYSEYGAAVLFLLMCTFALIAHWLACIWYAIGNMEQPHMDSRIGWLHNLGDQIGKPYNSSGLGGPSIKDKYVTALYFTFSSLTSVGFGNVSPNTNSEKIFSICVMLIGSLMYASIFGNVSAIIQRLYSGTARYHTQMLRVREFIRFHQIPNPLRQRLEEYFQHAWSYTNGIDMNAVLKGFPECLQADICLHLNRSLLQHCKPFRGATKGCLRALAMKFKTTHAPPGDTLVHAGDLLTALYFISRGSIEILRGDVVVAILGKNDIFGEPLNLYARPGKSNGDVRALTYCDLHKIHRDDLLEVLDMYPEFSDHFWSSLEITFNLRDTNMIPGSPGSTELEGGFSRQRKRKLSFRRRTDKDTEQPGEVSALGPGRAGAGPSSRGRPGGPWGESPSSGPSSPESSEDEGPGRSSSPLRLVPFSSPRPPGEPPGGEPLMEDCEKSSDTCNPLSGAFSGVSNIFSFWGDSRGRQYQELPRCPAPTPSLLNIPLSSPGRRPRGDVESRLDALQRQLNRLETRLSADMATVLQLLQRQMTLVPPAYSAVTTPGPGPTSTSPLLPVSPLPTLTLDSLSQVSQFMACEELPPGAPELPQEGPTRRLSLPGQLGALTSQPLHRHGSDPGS

As for `COc1ccc(N2CCN(C[C@H]3CN(c4ccc(C#N)c5ncccc45)C[C@@H](C)O3)CC2)cc1` [Example R1, 5-[(2S,6R)-2-[[4-(4-methoxyphenyl)piperazin-1-yl]methyl]-6-methyl-morpholin-4-yl]quinoline-8-carbonitrile, reference compound], at hERG channel, the “safety window (hERG IC20/TLR7/8/9 IC50) compared to the compounds of this invention” value is “much narrower safety window”, the “hERG IC20/TLR7 IC50” value is 9.3, the “hERG IC20/TLR8 IC50” value was determined as 6.2 and the “hERG IC20/TLR9 IC50” value was determined as 0.1.

On to `C[C@@H]1CN(c2ccc(C#N)c3ncccc23)C[C@H](CN2CCN(c3ccccn3)CC2)O1` [ER-888285, reference compound], for which, at hERG channel, the “safety window (hERG IC20/TLR7/8/9 IC50) compared to the compounds of this invention” value is “much narrower safety window”, the “hERG IC20/TLR7 IC50” value amounted to 8.4 and the “hERG IC20/TLR9 IC50” value is listed as 0.5. Moreover, the IC50 at hTLR9 [1] was greater than 2 µM.

As to `C[C@@H]1CN(c2ccc(C#N)c3ncccc23)C[C@H](CN2CC(NS(=O)(=O)c3ccc(F)cc3)C2)O1` [ER-894155], the IC50 on hTLR9 [1] was greater than 10 µM.

In the case of `[2H]c1nc2c(C#N)ccc(N3C[C@H](CN4CCN(c5nc(C)cc(N6C[C@H](OC)[C@@H](N)C6)n5)CC4)O[C@H](C)C3)c2nc1[2H]` [Example 105, 8-[(2S,6R)-2-[[4-[4-[(3S,4S)-3-amino-4-methoxy-pyrrolidin-1-yl]-6-methyl-pyrimidin-2-yl]piperazin-1-yl]methyl]-6-methyl-morpholin-4-yl]-2,3-dideuterio-quinoxaline-5-carbonitrile], the results for the IC50 on human TLR7 and at hTLR9 [2] were 0.013 µM and 0.069 µM, respectively.

For the molecule `C[C@@H]1CN(c2ccc(C#N)c3ncccc23)C[C@H](CN2CC[C@@H](NC(=O)c3ccccc3)C2)O1` [ER-894544], on hTLR9 [1], the IC50 is greater than 6.2 µM.

Turning to `Cc1nn(C)cc1S(=O)(=O)NC1CCN(C[C@H]2CN(c3ccc(C#N)c4ncccc34)C[C@@H](C)O2)CC1` [ER-894160], at hTLR9 [1], the IC50 was greater than 10 µM.

Take `C[C@@H]1CN(c2ccc(C#N)c3ncccc23)C[C@H](CN2CCN(c3ccc(Cl)cc3)CC2)O1` [Example R2, 5-[(2S,6R)-2-[[4-(4-chlorophenyl)piperazin-1-yl]methyl]-6-methyl-morpholin-4-yl]quinoline-8-carbonitrile, reference compound]: at hERG channel, the “safety window (hERG IC20/TLR7/8/9 IC50) compared to the compounds of this invention” value is “much narrower safety window”, the “hERG IC20/TLR7 IC50” value was determined as 1.3, the “hERG IC20/TLR8 IC50” value is 0.8 and the “hERG IC20/TLR9 IC50” value was found to be 0.04.
